# Laboratory results as given in ChEMBL document CHEMBL3880412, “Indole derivatives as CFTR modulators” (2009).
# System: Cystic fibrosis transmembrane conductance regulator (Homo sapiens), P13569 [F508del]
# Experiment: Correction activity at CFTR F508 deletion mutant (unknown origin) expressed in mouse NIH/3T3 cells assessed as increase in cAMP/genistein-dependent current amplitude at 10 uM incubated for 10 mins at 37 degC by patch clamp method relative to control
# Type: cell-based
# Sequence of Cystic fibrosis transmembrane conductance regulator (Homo sapiens), P13569 [F508del] (P13569 as listed by the source): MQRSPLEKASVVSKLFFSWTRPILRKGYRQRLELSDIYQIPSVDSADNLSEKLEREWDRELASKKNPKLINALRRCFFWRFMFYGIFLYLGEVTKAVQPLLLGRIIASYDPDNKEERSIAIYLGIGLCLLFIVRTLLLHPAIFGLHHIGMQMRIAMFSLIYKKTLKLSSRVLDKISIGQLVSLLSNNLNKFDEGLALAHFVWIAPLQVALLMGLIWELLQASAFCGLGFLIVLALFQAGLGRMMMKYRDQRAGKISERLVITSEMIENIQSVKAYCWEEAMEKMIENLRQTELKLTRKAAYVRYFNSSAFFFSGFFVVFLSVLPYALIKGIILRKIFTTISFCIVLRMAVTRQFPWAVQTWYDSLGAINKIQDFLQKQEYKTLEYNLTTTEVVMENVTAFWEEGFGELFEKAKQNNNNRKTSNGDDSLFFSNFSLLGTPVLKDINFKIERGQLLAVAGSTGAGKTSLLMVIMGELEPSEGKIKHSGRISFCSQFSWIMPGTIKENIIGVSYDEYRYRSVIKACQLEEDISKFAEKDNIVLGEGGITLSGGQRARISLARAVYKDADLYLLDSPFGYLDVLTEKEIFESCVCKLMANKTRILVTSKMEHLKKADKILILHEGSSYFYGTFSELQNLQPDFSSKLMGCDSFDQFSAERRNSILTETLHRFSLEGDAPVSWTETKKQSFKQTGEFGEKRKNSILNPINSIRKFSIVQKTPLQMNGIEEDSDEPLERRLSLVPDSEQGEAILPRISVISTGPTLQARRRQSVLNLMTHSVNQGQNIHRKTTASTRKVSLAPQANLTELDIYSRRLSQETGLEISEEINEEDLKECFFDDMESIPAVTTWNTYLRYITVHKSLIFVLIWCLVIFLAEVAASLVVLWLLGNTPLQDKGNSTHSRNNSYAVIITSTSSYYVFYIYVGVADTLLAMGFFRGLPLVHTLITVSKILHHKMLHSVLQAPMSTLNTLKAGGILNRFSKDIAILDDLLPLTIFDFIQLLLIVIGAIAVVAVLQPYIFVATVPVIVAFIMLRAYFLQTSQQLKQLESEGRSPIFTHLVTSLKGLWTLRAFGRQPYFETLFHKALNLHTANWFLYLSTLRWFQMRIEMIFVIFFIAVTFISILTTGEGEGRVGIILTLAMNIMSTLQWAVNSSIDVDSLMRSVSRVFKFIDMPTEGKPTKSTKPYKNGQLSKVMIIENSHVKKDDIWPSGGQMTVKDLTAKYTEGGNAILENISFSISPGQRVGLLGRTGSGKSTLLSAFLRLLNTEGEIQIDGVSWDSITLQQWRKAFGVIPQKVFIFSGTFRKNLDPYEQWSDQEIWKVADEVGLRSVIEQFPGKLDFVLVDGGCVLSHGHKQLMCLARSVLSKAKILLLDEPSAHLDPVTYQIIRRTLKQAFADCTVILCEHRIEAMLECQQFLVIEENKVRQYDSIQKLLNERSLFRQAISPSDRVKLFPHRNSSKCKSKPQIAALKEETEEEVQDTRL
row,Emax [%],Structure (SMILES)
1,122,CC(C)(C)c1cc2cc(NC(=O)C3(c4ccc5c(c4)OC(F)(F)O5)CC3)c(F)cc2n1CC[N+](C)(C)C
2,120 to 132,CC(C)(C)c1cc2cc(NC(=O)C3(c4ccc5c(c4)OCO5)CC3)c(F)cc2n1C[C@@H](O)CO
